Columns and labels:
htau40 [1] = target: T1, htau40 (Homo sapiens, UniProt P10636); assay: tau aggregation assay, electron microscopy quantification of filament lengths; type: biochemical; conditions: 10 μM concentration; data not shown
T1 construct: His-tag; made in house
Description: Aggregation assays. Under standard conditions, htau40 (4 μM) was incubated without agitation in Assembly Buffer (10 mM HEPES, pH 7.4, 100 mM NaCl, 5 mM dithiothreitol) at 37° C. for up to 168 h in the presence or absence of fibrillization inducer (AA, alkyl sulfate detergents, or carboxylate modified polystyrene beads). All samples incubated for more than 24 h were kept under argon in parafilm-sealed tubes. Samples were processed for assay by electron microscopy as described below.
Electron Microscopy Assays. […] Random images were viewed in a Phillips CM 12 transmission electron microscope operated at 65 kV, captured on film at 8,000–100,000-fold magnification, digitized at 600 dots-per-inch resolution, and imported into Optimas 6.5.1 for quantification of filament lengths and numbers. Individual filaments (defined as any object greater than 50 nm in its long axis with both ends visible in the field of view) were counted manually. […]
[formula] where y is total filament length (50 nm cutoff) measured at time t, yo is total filament length at time zero, t50 is time to 50% maximum fibrillization, A is the maximum total filament length at equilibrium, and kapp is the apparent first order rate constant for fibril growth in units of time^−1. […]

α-synuclein [2] = target: T2, α-synuclein (Homo sapiens, UniProt P37840); assay: α-synuclein polymerization, electron microscopy; type: biochemical; conditions: 37° C.; standard polymerization conditions
T2 construct: His-tag; made in house
Description: (§1) α-synuclein Polymerization Assays. Under standard conditions, α-synuclein (4–70 μM) was incubated with AA or other polymerization inducers (25–3000 μM) in Assembly Buffer (10 mM HEPES, pH 7.4, 100 mM NaCl, 5 mM DTT) at 37° C. for 3–26 h, without agitation. Various inducer concentrations were prepared by serial dilution of stock solutions. Control reactions were normalized for 1:1 H2O isopropanol vehicle, which was limited to 5% in all reactions. Samples were processed for electron microscopy and fluorescence spectroscopy as described below.
Electron Microscopy. Aliquots of polymerization reactions were taken, treated with 2% glutaraldehyde (final concentration), mounted on formvar/carbon coated 300 mesh grids, and negatively stained with 2% uranyl acetate as described previously (King et al., 1999). Images were viewed in a Phillips CM 12 transmission electron microscope operated at 65 kV. Random images were captured on film at 8,000–22,000X magnification, digitized at 600 dots-per-inch resolution, and imported into Optimas 6.5.1 for quantification of filament lengths and numbers. Individual filaments were defined as any object greater than 50 nm in its long axis and were counted manually.

α-synuclein [3] = target: T2, α-synuclein; assay: α-synuclein polymerization, Thioflavin T assay; type: biochemical
Description: as §1
Thioflavin T assay. α-synuclein (4–70 μM) was incubated in Assembly Buffer in the presence of 20 μM thioflavin T, with or without assembly inducers, in 96-well plates. Aggregation was monitored by following thioflavin T fluorescence (λex=[…]; in a Flex Station plate reader (Molecular Devices, Sunnyvale, Calif.).

htau40 [4] = target: T1, htau40; conditions: synthetic filaments aggregated 3 h with AA; Ref. 12; cited from earlier work
htau40 [5] = target: T1, htau40; assay: Disaggregation of preaggregated tau followed by ThS fluorescence; type: biochemical
[6] = CMC measurements for SDS (Corrin-Harkins analysis of CMC depression); type: physicochemical; conditions: literature values
Description: CMC values for SDS were estimated at 37° C. using N-phenyl-1-naphthylamine as described previously, except that various concentrations of protamine, histone, α-synuclein, or htau40 were included with the samples. Detergent stock solutions were prepared in 1:1 water isopropanol.
Analytical Methods. Dependence of detergent CMC on protein concentration was fit to the empirical Corrin-Harkins equation: log CMC=−kCH(log n)+bCH (1) where n is the molar concentration of protein or salt and kCH and bCH are constants. The slope of these curves, kCH, approximates the proportion of detergent micelles that are ionized.

T1 sequence (P10636 1-441 isoform P10636-8): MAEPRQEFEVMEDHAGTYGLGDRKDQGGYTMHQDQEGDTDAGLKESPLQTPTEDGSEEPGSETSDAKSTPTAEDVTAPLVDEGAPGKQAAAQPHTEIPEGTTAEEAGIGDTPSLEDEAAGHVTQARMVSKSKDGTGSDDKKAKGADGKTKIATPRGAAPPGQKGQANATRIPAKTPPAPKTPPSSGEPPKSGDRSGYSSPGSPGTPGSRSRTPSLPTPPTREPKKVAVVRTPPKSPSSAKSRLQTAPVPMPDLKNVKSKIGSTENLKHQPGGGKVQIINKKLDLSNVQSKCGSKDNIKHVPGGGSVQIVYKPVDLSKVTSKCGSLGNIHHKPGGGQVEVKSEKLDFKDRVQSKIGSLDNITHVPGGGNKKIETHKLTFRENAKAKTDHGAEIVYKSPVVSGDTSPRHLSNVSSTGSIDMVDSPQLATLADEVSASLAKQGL

Compound: thioflavin S [ThS]
- inhibition of tau fibrillization (htau40 [1]): not inhibitory

Compound: Phosphatidylserine
- induction of α-synuclein polymerization seen by electron microscopy (α-synuclein [2]): Abundant filaments and/or filamentous conglomerates

Compound: phosphatidylcholine
- induction of α-synuclein polymerization seen by electron microscopy (α-synuclein [2]): least efficient inducer

Compound: Heparin
- induction of α-synuclein polymerization seen by electron microscopy (α-synuclein [2]): little measurable polymerization
- Thioflavin T signal (α-synuclein [3]; heparin 25–3000 μM saccharide monomer, both forms of heparin): < 600 counts
- induction of α-synuclein fibrillization (Thioflavin T fluorescence) (α-synuclein [3]; α-synuclein 30 μM, 16 h at 37° C.): only weakly

Compound: CCCCCCCCCCCCOS(=O)(=O)[O-].[Na+] [C12H25SO4Na]
- threshold inducer concentration for induction of α-synuclein fibrillization (α-synuclein [3]; 16 h at 37° C., α-synuclein 5-30 μM): approximately 100 μM

Compound: CCCCC/C=C\C/C=C\C/C=C\C/C=C\CCCC(=O)O [AA, Arachidonic acid]
- slope constant b of exponential filament length distribution (htau40 [4]): −5.4±0.2 μm^−1
- decay slower than dilution in buffer alone (htau40 [5]; 50 μM arachidonic acid): 50 fold
- first order decay rate of ThS fluorescence after 20-fold dilution (htau40 [5]; additive in Assembly Buffer: 50 μM arachidonic acid or 2 μM htau40): 0.5 h⁻¹
- induction of α-synuclein polymerization seen by electron microscopy (α-synuclein [2]): induced

Compound: uteroglobulin^4-14: hydrophobic undecapeptide of neutral net charge with two positive charges; literature values (PSFQRVIETLL; UniProt P11684 25-35, looked up, fragment)
- potency of CMC depression relative to NaCl on a molar basis [6]: 1000 fold

Compound: phosphatidic acid
- induction of α-synuclein polymerization seen by electron microscopy (α-synuclein [2]): second in potency

From US7172875B2, “Identifying inhibitors of intracellular protein fibrillization” (The Ohio State University Research Foundation, priority 2003, dated 2007)
